Test results from ChEMBL document CHEMBL1201862, “PubChem BioAssay data set” (2004).
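Method: 48-hour compound exposure of cells in 96-well plates, five concentrations, linear interpolation of endpoints. Here, GI50 denotes the concentration required for 50% inhibition of growth.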 Activity calls are given as the source filed them. Rule as the data show it: active = GI50 up to about 1.1 µM and inactive = higher.

Tests used:
Assay in all cases: NCI tumour cell line growth inhibition, 48 h
A498 = test system: A498
A549 = test system: A549
ACHN = test system: ACHN
CAKI-1 = test system: CAKI-1
CCRF-CEM = test system: CCRF-CEM
COLO 205 = test system: COLO 205
DLD-1 = test system: DLD-1
DMS-114 = test system: DMS-114
DMS-273 = test system: DMS-273
EKVX = test system: EKVX
HCC 2998 = test system: HCC 2998
HCT-116 = test system: HCT-116
HCT-15 = test system: HCT-15
HL-60 = test system: HL-60
HOP-18 = test system: HOP-18
HOP-62 = test system: HOP-62
HOP-92 = test system: HOP-92
HT-29 = test system: HT-29
IGROV-1 = test system: IGROV-1
K562 = test system: K562
KM-20L2 = test system: KM-20L2
KM12 = test system: KM12
LXFL 529 = test system: LXFL 529
M14 = test system: M14
M19-MEL = test system: M19-MEL
MOLT-4 = test system: MOLT-4
Malme-3M = test system: Malme-3M
NCI-H226 = test system: NCI-H226
NCI-H23 = test system: NCI-H23
NCI-H460 = test system: NCI-H460
NCI-H522 = test system: NCI-H522
OVCAR-3 = test system: OVCAR-3
OVCAR-4 = test system: OVCAR-4
OVCAR-5 = test system: OVCAR-5
OVCAR-8 = test system: OVCAR-8
RPMI-8226 = test system: RPMI-8226
RXF 393 = test system: RXF 393
SF-268 = test system: SF-268
SF-295 = test system: SF-295
SF-539 = test system: SF-539
SK-MEL-28 = test system: SK-MEL-28
SK-MEL-2 = test system: SK-MEL-2
SK-MEL-5 = test system: SK-MEL-5
SK-OV-3 = test system: SK-OV-3
SN12C = test system: SN12C
SNB-19 = test system: SNB-19
SNB-75 = test system: SNB-75
SNB-78 = test system: SNB-78
SR = test system: SR
SW-620 = test system: SW-620
TK-10 = test system: TK-10
U-251 = test system: U-251
UACC-257 = test system: UACC-257
UACC-62 = test system: UACC-62
UO-31 = test system: UO-31
XF498 = test system: XF498
786-0 = test system: 786-0
LOX IMVI = test system: LOX IMVI

## CC(=O)C(/N=N\C1CCC(S(=O)(=O)NB2N=CS2)CC1)C(=O)Nc1ccccc1C (stereo not given)
A498
  GI50: 16.7 µM (inactive)
A549
  GI50: 13 µM (inactive)
ACHN
  GI50: 12.2 µM (inactive)
CAKI-1
  GI50: 23.1 µM (inactive)
CCRF-CEM
  GI50: 19 µM (inactive)
COLO 205
  GI50: 20.9 µM (inactive)
DLD-1
  GI50: 16.9 µM (inactive)
DMS-114
  GI50: 11.9 µM (inactive)
DMS-273
  GI50: 20.6 µM (inactive)
EKVX
  GI50: 19.3 µM (inactive)
HCC 2998
  GI50: 17.5 µM (inactive)
HCT-116
  GI50: 13.5 µM (inactive)
HCT-15
  GI50: 10.5 µM
HL-60
  GI50: > 100 µM (inactive)
HOP-18
  GI50: 29.3 µM (inactive)
HOP-62
  GI50: 20 µM (inactive)
HOP-92
  GI50: 19.2 µM (inactive)
HT-29
  GI50: 16 µM (inactive)
IGROV-1
  GI50: 17.4 µM (inactive)
K562
  GI50: > 100 µM (inactive)
KM-20L2
  GI50: 15.9 µM (inactive)
KM12
  GI50: 16 µM (inactive)
LXFL 529
  GI50: 14.2 µM (inactive)
M14
  GI50: 19.2 µM (inactive)
M19-MEL
  GI50: 17.6 µM (inactive)
MOLT-4
  GI50: 18.3 µM (inactive)
Malme-3M
  GI50: 16 µM (inactive)
NCI-H226
  GI50: 14.9 µM (inactive)
NCI-H23
  GI50: 13.6 µM (inactive)
NCI-H460
  GI50: 15.8 µM (inactive)
NCI-H522
  GI50: 15.3 µM (inactive)
OVCAR-3
  GI50: 13.8 µM (inactive)
OVCAR-4
  GI50: 12.8 µM (inactive)
OVCAR-5
  GI50: 19.8 µM (inactive)
OVCAR-8
  GI50: 10.5 µM (inactive)
RPMI-8226
  GI50: 31.1 µM (inactive)
RXF 393
  GI50: 21 µM (inactive)
SF-268
  GI50: 14.7 µM (inactive)
SF-295
  GI50: 17 µM (inactive)
SF-539
  GI50: 17.7 µM (inactive)
SK-MEL-28
  GI50: 15.4 µM (inactive)
SK-MEL-2
  GI50: 17.9 µM (inactive)
SK-MEL-5
  GI50: 12.6 µM (inactive)
SK-OV-3
  GI50: 27 µM (inactive)
SN12C
  GI50: 17.4 µM (inactive)
SNB-19
  GI50: 16.5 µM (inactive)
SNB-75
  GI50: 17.5 µM (inactive)
SNB-78
  GI50: 23.6 µM (inactive)
SR
  GI50: 43.7 µM (inactive)
SW-620
  GI50: 16.3 µM (inactive)
TK-10
  GI50: 25.6 µM (inactive)
U-251
  GI50: 13.7 µM (inactive)
UACC-257
  GI50: 17.9 µM (inactive)
UACC-62
  GI50: 17.9 µM (inactive)
UO-31
  GI50: 18.8 µM (inactive)
XF498
  GI50: 16.9 µM (inactive)

## O=C1[C@@H]2C3SC(c4ccccc43)[C@@H]2C(=O)N1c1ccccc1
786-0
  GI50: > 74 µM (inactive)
A498
  GI50: > 100 µM (inactive)
A549
  GI50: > 100 µM (inactive)
ACHN
  GI50: > 100 µM (inactive)
CAKI-1
  GI50: > 100 µM (inactive)
CCRF-CEM
  GI50: > 100 µM (inactive)
COLO 205
  GI50: > 100 µM (inactive)
DLD-1
  GI50: > 100 µM (inactive)
DMS-114
  GI50: > 100 µM (inactive)
DMS-273
  GI50: > 100 µM (inactive)
EKVX
  GI50: > 100 µM (inactive)
HCC 2998
  GI50: > 100 µM (inactive)
HCT-116
  GI50: > 100 µM (inactive)
HCT-15
  GI50: > 100 µM
HL-60
  GI50: > 100 µM (inactive)
HOP-18
  GI50: > 90.4 µM (inactive)
HOP-62
  GI50: > 100 µM (inactive)
HOP-92
  GI50: > 64.1 µM (inactive)
HT-29
  GI50: > 100 µM (inactive)
IGROV-1
  GI50: > 100 µM (inactive)
K562
  GI50: > 100 µM (inactive)
KM-20L2
  GI50: > 100 µM (inactive)
KM12
  GI50: > 100 µM (inactive)
LOX IMVI
  GI50: > 100 µM (inactive)
LXFL 529
  GI50: > 100 µM (inactive)
M14
  GI50: > 100 µM (inactive)
M19-MEL
  GI50: > 100 µM (inactive)
MOLT-4
  GI50: > 100 µM (inactive)
Malme-3M
  GI50: > 100 µM (inactive)
NCI-H226
  GI50: > 100 µM (inactive)
NCI-H23
  GI50: > 100 µM (inactive)
NCI-H460
  GI50: > 100 µM (inactive)
NCI-H522
  GI50: > 100 µM (inactive)
OVCAR-3
  GI50: > 100 µM (inactive)
OVCAR-5
  GI50: > 100 µM (inactive)
OVCAR-8
  GI50: > 100 µM (inactive)
RPMI-8226
  GI50: > 100 µM (inactive)
RXF 393
  GI50: > 100 µM (inactive)
SF-268
  GI50: > 95.1 µM (inactive)
SF-295
  GI50: > 88.9 µM (inactive)
SF-539
  GI50: > 75 µM (inactive)
SK-MEL-28
  GI50: > 100 µM (inactive)
SK-MEL-2
  GI50: > 100 µM (inactive)
SK-MEL-5
  GI50: > 100 µM (inactive)
SK-OV-3
  GI50: > 83.4 µM (inactive)
SN12C
  GI50: > 100 µM (inactive)
SNB-19
  GI50: 41.9 µM (inactive)
SNB-75
  GI50: 28.6 µM (inactive)
SNB-78
  GI50: > 100 µM (inactive)
SR
  GI50: > 100 µM (inactive)
SW-620
  GI50: > 100 µM (inactive)
TK-10
  GI50: 97.1 µM (inactive)
U-251
  GI50: > 66.4 µM (inactive)
UACC-257
  GI50: > 100 µM (inactive)
UACC-62
  GI50: > 100 µM (inactive)
UO-31
  GI50: > 100 µM (inactive)
XF498
  GI50: 61 µM (inactive)

## COc1ccc(OC)c(CCc2ccccc2CC(=O)O)c1
786-0
  GI50: > 100 µM (inactive)
A498
  GI50: > 100 µM (inactive)
A549
  GI50: > 100 µM (inactive)
ACHN
  GI50: > 100 µM (inactive)
CAKI-1
  GI50: > 100 µM (inactive)
CCRF-CEM
  GI50: > 100 µM (inactive)
COLO 205
  GI50: > 100 µM (inactive)
DLD-1
  GI50: > 100 µM (inactive)
DMS-114
  GI50: > 100 µM (inactive)
DMS-273
  GI50: > 100 µM (inactive)
EKVX
  GI50: > 100 µM (inactive)
HCC 2998
  GI50: > 100 µM (inactive)
HCT-116
  GI50: > 100 µM (inactive)
HCT-15
  GI50: > 100 µM
HL-60
  GI50: > 100 µM (inactive)
HOP-18
  GI50: > 100 µM (inactive)
HOP-92
  GI50: > 100 µM (inactive)
HT-29
  GI50: > 100 µM (inactive)
IGROV-1
  GI50: > 100 µM (inactive)
K562
  GI50: > 100 µM (inactive)
KM-20L2
  GI50: > 100 µM (inactive)
KM12
  GI50: > 100 µM (inactive)
LOX IMVI
  GI50: > 100 µM (inactive)
LXFL 529
  GI50: > 100 µM (inactive)
M14
  GI50: > 100 µM (inactive)
M19-MEL
  GI50: > 100 µM (inactive)
MOLT-4
  GI50: > 100 µM (inactive)
Malme-3M
  GI50: > 100 µM (inactive)
NCI-H226
  GI50: > 100 µM (inactive)
NCI-H23
  GI50: > 100 µM (inactive)
NCI-H460
  GI50: > 100 µM (inactive)
NCI-H522
  GI50: > 100 µM (inactive)
OVCAR-3
  GI50: > 100 µM (inactive)
OVCAR-4
  GI50: > 100 µM (inactive)
OVCAR-5
  GI50: > 100 µM (inactive)
OVCAR-8
  GI50: > 100 µM (inactive)
RPMI-8226
  GI50: > 100 µM (inactive)
RXF 393
  GI50: > 100 µM (inactive)
SF-268
  GI50: > 100 µM (inactive)
SF-295
  GI50: > 100 µM (inactive)
SF-539
  GI50: > 100 µM (inactive)
SK-MEL-28
  GI50: > 100 µM (inactive)
SK-MEL-2
  GI50: > 100 µM (inactive)
SK-MEL-5
  GI50: > 100 µM (inactive)
SK-OV-3
  GI50: > 100 µM (inactive)
SN12C
  GI50: > 100 µM (inactive)
SNB-19
  GI50: > 100 µM (inactive)
SNB-75
  GI50: 35.5 µM (inactive)
SNB-78
  GI50: > 100 µM (inactive)
SR
  GI50: > 100 µM (inactive)
SW-620
  GI50: > 100 µM (inactive)
TK-10
  GI50: > 100 µM (inactive)
U-251
  GI50: > 100 µM (inactive)
UACC-257
  GI50: > 100 µM (inactive)
UACC-62
  GI50: > 100 µM (inactive)
UO-31
  GI50: > 100 µM (inactive)
XF498
  GI50: > 100 µM (inactive)
